{"source": "patent US5262439A", "about": "(priority 1992, dated 1993)", "key": {"[1]": {"system": "LDL incubated with mouse peritoneal macrophages", "assay": "Ability of macrophages to oxidize LDL after preincubation with probucol or diglutaryl probucol (TBARS)", "format": "cell-based", "protocol": "(§1) After 48 hours the cells were washed 3 times with 3 ml of Ham's F-10 and then subjected to incubation with ^125 I-LDL (1100 μg/ml) in 2 ml of Ham's F-10 for 20 hours. TBARS and subsequent macrophage degradation were determined. The results are averages from a triplicate determination from a representative set.\n(§2) After several washings with Ham's F-10, the cells were then incubated with 200 μg of ^125 I-LDL in 2 ml. of Ham's F-10 for 24 hours. […] However, because the probucol was obviously not in solution and might remain absorbed to the cell surface even after washing, it is possible that residual probucol on the cell surface accounted for the apparent protection during the second incubation, i.e., probucol from the cell surface might transfer into the LDL during the first part of the second incubation.\n(§3) Then the cells were thoroughly washed to remove any extracellular inhibitors. Specifically, they were washed three times with 3 ml of F-10 containing 10% fetal calf serum and then incubated with labeled LDL for an additional 24 hours. […] The values given are from a typical experiment from three or more separate experiments."}, "[2]": {"system": "LDL incubated with mouse peritoneal macrophages", "assay": "Macrophage degradation of LDL previously incubated with pretreated macrophages (biological modification)", "format": "cell-based", "protocol": "as §1, §2, §3"}, "[3]": {"system": "LDL incubated with endothelial cells (EC)", "assay": "Ability of endothelial cells (EC) to induce LDL oxidation after pretreatment (TBARS)", "format": "cell-based", "conditions": "Set A, 3 hours at 37° C., LDL 24 hours", "protocol": "as §3"}, "[4]": {"system": "LDL incubated with endothelial cells (EC)", "assay": "Macrophage degradation of LDL previously incubated with pretreated endothelial cells (biological modification)", "format": "cell-based", "conditions": "Set A, 3 hours at 37° C., LDL 24 hours", "protocol": "as §3"}, "LDL [5]": {"system": "LDL", "assay": "Inhibition of oxidative modification of LDL, compound present during 24 hour incubation", "format": "cell-based"}, "macrophages": {"system": "macrophages", "assay": "Uptake of ^14 C-labeled water-soluble derivative by macrophages", "format": "cell-based, mouse", "conditions": "for Cell associated ^14 C-radioactivity: 3 hours at 37° C.", "protocol": "(§4) The cells were then washed three times with DME. […] The cells were dissolved in 1 ml of 0.01% Triton X-100 before the determination of radioactivity. Values for macrophages represent averages of duplicate determinations from one of two separate trials. Values for endothelial cells are from four individual cell incubations."}, "endothelial cells [6]": {"system": "endothelial cells", "assay": "Uptake of ^14 C-labeled water-soluble derivative by endothelial cells", "format": "cell-based", "conditions": "5 nmol added, 3 hours at 37° C., four individual cell incubations", "protocol": "as §4"}, "endothelial cells [7]": {"system": "endothelial cells", "assay": "Uptake, retention and release of probucol by endothelial cells incubated with ^14 C-labeled diglutaryl probucol", "format": "cell-based", "protocol": "(§5) Nevertheless, after two subsequent incubations with LDL at 100 μg/ml for 24 hours each, 30-45% of the incorporated radioactivity was still associated with the cells. […] Thus, cells enriched in probucol, also released the antioxidant into the medium which may offer additional protection against oxidation. The rate of release of probucol from cells was not followed in these studies."}, "[8]": {"system": "LDL incubated with endothelial cells", "assay": "Oxidation of LDL recovered from the medium of diglutaryl probucol-pretreated endothelial cells", "format": "cell-based", "conditions": "endothelial cells preincubated with 25 nmol for 3 hours", "protocol": "as §5"}, "LDL [9]": {"system": "LDL", "assay": "Subsequent copper modification of LDL recovered from pretreated endothelial cells", "format": "biochemical", "protocol": "as §5"}, "[10]": {"assay": "Hydrolysis to free probucol", "format": "physicochemical", "excerpt": "A particularly preferred embodiment of the present invention is a class of dicarboxylic acid esters of probucol compounds which can be dissolved as sodium or potassium salts.\n(§6) The product was purified by silicic acid column chromatography using increasing amounts of ether in hexane. The purified product gave a single spot on TLC (Rf 0.18) distinct from the parent compound (Rf 0.68). Upon alkaline hydrolysis, the compound yielded free probucol."}, "Solubility": {"assay": "Solubility", "format": "physicochemical", "protocol": "as §6\nMore than 96% of the labeled derivative readily went into the solution as the sodium salt and when incubated with macrophages was effectively taken up by the cells."}, "[11]": {"conditions": "cited from earlier work"}, "endothelial cells [12]": {"system": "endothelial cells", "conditions": "cited from earlier work"}, "[13]": {"system": "LDL receptor-deficient rabbits", "conditions": "cited from earlier work"}, "rat": {"system": "rat", "conditions": "given orally for some time before tying off a renal artery; cited from earlier work"}, "LDL [14]": {"system": "LDL", "conditions": "cited from earlier work"}, "[15]": {"conditions": "Set B, macrophages pretreated with 10 μM, 3 hours at 37° C., LDL 24 hours"}, "[16]": {"conditions": "Set B, macrophages pretreated with 20 μM, 3 hours at 37° C., LDL 24 hours"}, "[17]": {"conditions": "Set B, macrophages pretreated with 30 μM, 3 hours at 37° C., LDL 24 hours"}, "[18]": {"conditions": "macrophages pretreated with 500 nmol/ml probucol in ethanol, 48 hours, then LDL"}, "[19]": {"conditions": "EC pretreated with 100 μM (probucol in ethanol)"}}, "data": [{"smiles": "CC(C)(Sc1cc(C(C)(C)C)c(OC(=O)CCCC(=O)O)c(C(C)(C)C)c1)Sc1cc(C(C)(C)C)c(OC(=O)CCCC(=O)O)c(C(C)(C)C)c1", "note": "[diglutaryl probucol, probucol diglutarate]", "values": [{"measurement": "TBARS", "setting": "[1]; [15]", "result": 5.3, "unit": "nmol/mg protein"}, {"measurement": "TBARS", "setting": "[1]; [16]", "result": 4.1, "unit": "nmol/mg protein"}, {"measurement": "TBARS", "setting": "[1]; [17]", "result": 3.3, "unit": "nmol/mg protein"}, {"measurement": "Inhibition of LDL modification by pretreated cells", "setting": "[1]; concentrations as low as 10 μM, 3 hours pretreatment", "result": "inhibited the modification completely"}, {"measurement": "Macrophage degradation", "setting": "[2]; [15]", "result": "2.2 μg/5 h per mg cell protein"}, {"measurement": "Macrophage degradation", "setting": "[2]; [16]", "result": "1.6 μg/5 h per mg cell protein"}, {"measurement": "Macrophage degradation", "setting": "[2]; [17]", "result": "1.4 μg/5 h per mg cell protein"}, {"measurement": "TBARS", "setting": "[3]; EC pretreated with 25 μM", "result": 12.1, "unit": "nmol/mg protein"}, {"measurement": "TBARS", "setting": "[3]; EC pretreated with 50 μM", "result": 6.5, "unit": "nmol/mg protein"}, {"measurement": "Macrophage degradation", "setting": "[4]; EC pretreated with 25 μM", "result": "1.5 μg/5 h per mg cell protein"}, {"measurement": "Macrophage degradation", "setting": "[4]; EC pretreated with 50 μM", "result": "1.3 μg/5 h per mg cell protein"}, {"measurement": "inhibition at 2.5 µM", "setting": "LDL [5]", "result": "> 50", "unit": "%"}, {"measurement": "Cell associated radioactivity in the form of the precursor, probucol diglutarate", "setting": "macrophages; at 60 minutes", "result": "about half"}, {"measurement": "Cell associated ^14 C-radioactivity", "setting": "macrophages; macrophages, 5 nmol added", "result": 2.5, "unit": "nmol"}, {"measurement": "Cell associated ^14 C-radioactivity", "setting": "macrophages; macrophages, 10 nmol added", "result": 3.7, "unit": "nmol"}, {"measurement": "Cell associated ^14 C-radioactivity", "setting": "macrophages; macrophages, 15 nmol added", "result": 4.2, "unit": "nmol"}, {"measurement": "Cell associated ^14 C-radioactivity", "setting": "macrophages; macrophages, 20 nmol added", "result": 5.2, "unit": "nmol"}, {"measurement": "Cell associated ^14 C-radioactivity", "setting": "macrophages; macrophages, 25 nmol added", "result": 6.5, "unit": "nmol"}, {"measurement": "Added radioactivity associated with the cells", "setting": "macrophages; macrophages, after 2 hours", "result": "25-30%"}, {"measurement": "Amount associated with the cells", "setting": "macrophages; macrophages, after 2 hours", "result": "2.5-6.5 nmol of probucol/~40 μg of cell protein"}, {"measurement": "Cell associated ^14 C-radioactivity", "setting": "endothelial cells [6]", "result": "1.9 ± 0.14", "unit": "nmol"}, {"measurement": "Incorporated radioactivity still associated with the cells", "setting": "endothelial cells [7]; 50-200 nmol, after two subsequent incubations with LDL at 100 μg/ml for 24 hours each", "result": "30-45%"}, {"measurement": "Release of free probucol into the medium", "setting": "endothelial cells [7]; endothelial cells incubated with 50-200 nmol, 24 hour incubation after washings", "result": "considerable release of free probucol into the medium"}, {"measurement": "Oxidation of LDL recovered from the medium", "setting": "[8]", "result": "absence of oxidation"}, {"measurement": "Modification of recovered LDL upon subsequent incubation with 5 μM copper", "setting": "LDL [9]; endothelial cells preincubated with 25 nmol for 3 hours", "result": "readily modified"}, {"measurement": "Modification of recovered LDL upon subsequent incubation with 5 μM copper", "setting": "LDL [9]; endothelial cells preincubated with 50-200 nmol", "result": "resistant to modification"}, {"measurement": "Hydrolysis in the course of incubation", "setting": "[10]; 24 hour incubation, medium", "result": "almost completely hydrolyzed"}, {"measurement": "Hydrolysis in aqueous solution", "setting": "[10]; sodium salt in aqueous solution", "result": "slow hydrolysis"}, {"measurement": "Solubility in organic solvents", "setting": "Solubility; acid form", "result": "soluble in organic solvents"}, {"measurement": "Labeled derivative going into solution", "setting": "Solubility; as the sodium salt", "result": "More than 96%"}, {"measurement": "Solubility in sodium bicarbonate solution", "setting": "Solubility; sodium bicarbonate solution, after removal of organic solvent", "result": "can be dissolved in sodium bicarbonate solution"}]}, {"smiles": "CC(C)(Sc1cc(C(C)(C)C)c(O)c(C(C)(C)C)c1)Sc1cc(C(C)(C)C)c(O)c(C(C)(C)C)c1", "note": "[probucol, 4,4'-(isopropylidenedithio) bis(2,6-di-tert-butylphenol), reference compound]", "values": [{"measurement": "LDL modification by cells as compared to control cells not pretreated", "setting": "[1]; cells preincubated with probucol 500 nmol/ml", "result": "modified LDL poorly as compared to control cells"}, {"measurement": "TBARS", "setting": "[1]; [18]", "result": 11.2, "unit": "nmol/mg protein"}, {"measurement": "Macrophage degradation", "setting": "[2]; [18]", "result": "2.1 μg/5 h per mg cell protein"}, {"measurement": "TBARS", "setting": "[3]; [19]", "result": 42.5, "unit": "nmol/mg protein"}, {"measurement": "Macrophage degradation", "setting": "[4]; [19]", "result": "6.4 μg/5 h per mg cell protein"}, {"measurement": "Probucol released into the medium", "setting": "endothelial cells [7]; 24 hour incubation with LDL, 50-200 nmol diglutaryl probucol", "result": "about 7 nmol"}, {"measurement": "Probucol incorporated into the cells", "setting": "endothelial cells [7]; endothelial cells, 50-200 nmol diglutaryl probucol", "result": "more than 15 nmol"}, {"measurement": "Solubility in medium", "setting": "Solubility; 500 nmol/ml added in ethanol, medium grossly milky", "result": "very limited solubility"}, {"measurement": "Solubility in lipid", "setting": "[11]", "result": "highly lipid soluble"}, {"measurement": "Solubility in water", "setting": "[11]; water", "result": "almost insoluble in water"}, {"measurement": "Incorporation into endothelial cells", "setting": "endothelial cells [12]; 50 μM probucol, 24 h", "result": "less than 1 μg of probucol/10^6 cells"}, {"measurement": "Rate of entrance into cells in culture", "setting": "endothelial cells [12]; cells in culture", "result": "slow"}, {"measurement": "Progression of atherosclerosis", "setting": "[13]", "result": "slow the progression of atherosclerosis"}, {"measurement": "Post-perfusion injury in the kidney", "setting": "rat", "result": "can limit the post-perfusion injury in the kidney"}, {"measurement": "Oxidative modification of LDL", "setting": "LDL [14]", "result": "block oxidative modification of LDL"}]}]}
